Experimental data reported in patent US20090221697A1, “MACROLIDE CONJUGATES OF PYRROLIZINE AND INDOLIZINE COMPOUNDS AS INHIBITORS OF 5-LIPOOXYGENASE AND CYCLOOXYGENASE” (MERCKLE GMBH, priority 2005, published 2009).

Experiments:
blood cells = assay: Uptake of conjugates into blood cells (buffy coat preparations), LC/MS; type: in vitro ADME; design: key: −: excluded from blood cells; +: equal or similar; ++: >5-fold enhancement in blood cells; +++: >10-fold enhancement in blood cells; details: substrates 1 to 10 μM, 37° C., 5% CO2, screening samples at 0 and 120 minutes
Description: Freshly drawn heparinised blood or buffy coat preparations are used for the determination of conjugate uptake. Buffy coat preparations are preferred. They may be obtained from donor blood by simple centrifugation of whole blood (4795 g for 10 minutes). Following centrifugation, plasma is collected from the surface, after which immune cells are expressed from the donor bags along with the erythrocytes lying immediately below the leukocyte layer. This ensures high yields and a sufficient population of erythrocytes for partition. 5 ml of the resulting cell suspension are dispensed into T25 culture flasks. Substrates are added to a final concentration between 1 and 10 μM and the suspensions incubated at 37° C., in a 5% CO2 atmosphere. For analysis of uptake kinetics, samples are drawn at 0, 2, 5, 10, 30, 60, 90, 180, or 240 min after substrate addition. For screening purposes, samples are taken at 0 and 120 minutes.
Cell fractions were prepared using density gradient centrifugation. Mononuclear cells and polymorphonuclear cells are separated from erythrocytes essentially by layering the cell suspension on a viscous medium typically composed of a solution containing Ficoll or similar (commercial suppliers include: Lymphoprep, Axis Shield, 1031966; Lymphoflot HLA, 824010; or PMN Separation Medium Robbins Scientific 1068-00-0). The layered suspension is then centrifuged at 600 g, 20 min, after which the cell fractions and the plasma (incubation medium) fraction are removed by gentle aspiration, washed twice in PBS buffer, followed by estimation of the cell number and pellet volume.
Uptake of compounds is monitored using chromatographic analysis (LC/MS) with mass selective detection. Uptake is also normalized to the amount of cells based on both estimated volume and total protein. […] The supernatant is recovered and sub-sampled for protein and DNA content. Protein in the supernatant is precipitated by bringing the solution to 100% v/v ethanol and centrifuging again at 16100 g, 10 min. Compound uptake is normalized according to cytoplasmic volume of cells in order to obtain the average concentration in the cells. Cell volume is estimated by correlation of DNA, protein or haem content of lysed cell aliquots to cell number and packed volume prior to lysis.

[1] = test system: collagen-induced arthritis in DBA J1 mice; assay: Collagen-induced arthritis, arthritic score (Table 2); type: in vivo; design: key: −: healthy paw; +: one joint inflamed; ++: two types of joint inflamed (e.g. tarsal and digit); +++: inflammation of three joints in two separate parts of the paw; ++++: inflammation of whole paw; details: treated for 10 days after arthritis developed
Description: (§1) Efficacy of drugs in suppressing arthritis may be determined using animal models. The collagen-induced arthritis in rodents is a well established experimental model of rheumatoid arthritis and considered appropriate to test the efficacy of anti-inflammatory drugs. The model is performed by immunising animals with exogenous collagen (e.g. bovine or chick) and administering substances following the appearance of disease. Disease may be boosted to increase response. The data reported herein were generated using the murine model in DBA J1 mice. At day zero a collagen suspension in complete Freund's adjuvant was injected s.c. at the tail base. At day 20, collagen in incomplete Freund's adjuvant was injected at a nearby position on the tail base. When arthritis developed, animals were randomly assigned to treatment groups. Signs monitored included weight, paw score, paw thickness and overall condition. Animals were observed and treated for 10 days. Macrolide conjugates were formulated as solutions in 1.5% citrate, 6% fructose in water.

[2] = test system: collagen-induced arthritis in DBA J1 mice; assay: Collagen-induced arthritis (bovine collagen), further experiment, p.o. once daily (Table 3); type: in vivo; details: vehicle = 100%
Description: as §1
In a further experiment Arthritis was induced using bovine collagen as described above. Animals were treated with compounds p.o. once daily following positive development of disease. Comparison with control animals (untreated) was made at 9 days after treatment.

[3] = dose 66 μmol/kg p.o. once daily
[4] = dose 132 μmol/kg p.o. once daily

Compound | Ratio internal over external concentration (blood cells) | arthitic score [1] | relative score at day 9 after onset of arthritis [2, 3] [%] | relative score at day 9 after onset of arthritis [2, 4] [%]
CC[C@H]1OC(=O)[C@H](C)C(=O)[C@H](C)[C@@H](O[C@@H]2O[C@H](C)C[C@H](N(C)C)[C@H]2OC(=O)Cc2c(-c3cc4ccccc4o3)c(-c3ccccc3)c3n2CC(C)(C)C3)[C@](C)(O)C[C@@H](C)CN(C)[C@H](C)[C@@H](O)[C@]1(C)O [Compound 5] | +++ (>10-fold enhancement in blood cells) | − |  | 
CC[C@H]1OC(=O)[C@H](C)C2O[C@](C)(C[C@@H](C)CN(C)[C@H](C)[C@@H](O)[C@]1(C)O)[C@H](O[C@@H]1O[C@H](C)C[C@H](N(C)C)[C@H]1OC(=O)Cc1c(-c3ccc(Cl)cc3)c(-c3ccccc3)c3n1CC(C)(C)C3)[C@H]2C [Compound 9] |  |  | 67 | 14
CC1(C)Cc2c(-c3ccccc3)c(-c3ccc(Cl)s3)c(CC(=O)O)n2C1 [Drug component of 8 (without macrolide), [2-(5-chloro-thiophen-2-yl)-6,6-dimethyl-1-phenyl-6,7-dihydro-5H-pyrrolizin-3-yl]-acetic acid, reference compound] | + | ++ |  | 
CC1(C)Cc2c(-c3ccccc3)c(-c3cc4ccccc4o3)c(CC(=O)O)n2C1 [Drug component of 5 (without macrolide), (2-benzofuran-2-yl-6,6-dimethyl-1-phenyl-6,7-dihydro-5H-pyrrolizin-3-yl)-acetic acid, reference compound] | + | ++++ |  | 
CC[C@H]1OC(=O)[C@H](C)[C@@H](O)[C@H](C)[C@@H](O[C@@H]2O[C@H](C)C[C@H](N(C)C)[C@H]2OC(=O)Cc2c(-c3ccc(Cl)cc3)c(-c3ccccc3)c3n2CC(C)(C)C3)[C@](C)(O)C[C@@H](C)CN(C)[C@H](C)[C@@H](O)[C@]1(C)O [Compound 2] |  |  | 44 | 
CC1(C)Cc2c(-c3ccccc3)c(-c3ccc(Cl)cc3)c(CC(=O)O)n2C1 [Active moiety alone, licofelone, reference compound] |  |  |  | 90
CC[C@H]1OC(=O)[C@H](C)C(=O)[C@H](C)[C@@H](O[C@@H]2O[C@H](C)C[C@H](N(C)C)[C@H]2OC(=O)Cc2c(-c3ccc(Cl)cc3)c(-c3ccccc3)c3n2CC(C)(C)C3)[C@](C)(O)C[C@@H](C)CN(C)[C@H](C)[C@@H](O)[C@]1(C)O [Compound 4] |  |  | 76 | 33
CC[C@H]1OC(=O)[C@H](C)C(=O)[C@H](C)[C@@H](O[C@@H]2O[C@H](C)C[C@H](N(C)C)[C@H]2OC(=O)Cc2c(-c3ccc(Cl)s3)c(-c3ccccc3)c3n2CC(C)(C)C3)[C@](C)(O)C[C@@H](C)CN(C)[C@H](C)[C@@H](O)[C@]1(C)O [Compound 8] | ++ (>5-fold enhancement in blood cells) | + |  | 
